Source: patent US6723753B2, “Substituted n-benzyl-n-phenyl aminoalcohol compounds useful for inhibiting cholesteryl ester transfer protein activity” (Pharmacia Corporation, priority 2002, dated 2004)
Like-named read-outs stand apart in the source and are kept apart here.

Target: T1, CETP (Homo sapiens, UniProt P11597)
T1 sequence (P11597 18-493): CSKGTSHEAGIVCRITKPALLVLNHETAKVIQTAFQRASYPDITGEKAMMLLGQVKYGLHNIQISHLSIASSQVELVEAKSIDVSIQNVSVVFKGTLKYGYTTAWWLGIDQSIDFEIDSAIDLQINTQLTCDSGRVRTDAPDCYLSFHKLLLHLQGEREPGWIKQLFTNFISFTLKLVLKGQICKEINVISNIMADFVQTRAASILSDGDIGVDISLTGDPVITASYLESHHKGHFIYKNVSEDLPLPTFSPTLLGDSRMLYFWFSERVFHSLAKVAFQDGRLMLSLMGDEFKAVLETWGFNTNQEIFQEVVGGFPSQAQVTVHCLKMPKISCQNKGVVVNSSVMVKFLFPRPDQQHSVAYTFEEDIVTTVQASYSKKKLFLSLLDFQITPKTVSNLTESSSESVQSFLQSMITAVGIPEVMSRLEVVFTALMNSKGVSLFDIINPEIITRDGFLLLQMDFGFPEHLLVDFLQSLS
Assay: Assay of CETP Inhibition using Purified Components (Reconstituted Buffer Assay)
Assay type: biochemical
Parameters: made in house; host or cells: CHO cells (serum-free conditioned medium)
Settings: transfer of [3H]CE from HDL to LDL
Outline: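 Purified human recombinant CETP from transfected CHO cells was incubated with [^3H]CE-labeled HDL donor and LDL acceptor in Tris pH 7.4/NaCl/EDTA/1% BSA buffer for 2 h at 37 °C. LDL was then precipitated with dextran sulfate/MgCl2, filtered, and counted by liquid scintillation to give IC50 for CE transfer.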

[1] = Inhibition of CETP activity in reconstituted buffer assay, read-out: IC50

SMILES	IC50 [1] [µM]	IC50 (IC50, Inhibition of CETP activity in reconstituted buffer assay) [µM]
OC(CN(Cc1cccc(OC(F)(F)C(F)F)c1)c1cccc(Oc2cccc(-c3ccccc3)c2)c1)C(F)(F)F (centres unmarked) [Example 264]	1.4	
OC(CN(Cc1cccc(OC(F)(F)C(F)F)c1)c1cccc(Oc2ccc3ccccc3c2)c1)C(F)(F)F (centres unmarked) [Example 285]	1.1	
OC(CN(Cc1cccc(OC(F)(F)C(F)F)c1)c1cccc(Oc2cccnc2)c1)C(F)(F)F (centres unmarked) [Example 286]		1.3
Cc1ncccc1Oc1cccc(N(Cc2cccc(OC(F)(F)C(F)F)c2)CC(O)C(F)(F)F)c1 (centres unmarked) [Example 289]	1.8	
OC(CN(Cc1cccc(OC(F)(F)C(F)F)c1)c1cccc(Nc2ccc(C(F)(F)F)cc2)c1)C(F)(F)F (centres unmarked) [Example 295]	17	
CCOC(=O)c1ccc(Nc2cccc(N(Cc3cccc(OC(F)(F)C(F)F)c3)CC(O)C(F)(F)F)c2)cc1 (centres unmarked) [Example 298]	24	
Cc1ccc(-c2noc(-c3ccc(Nc4cccc(N(Cc5cccc(OC(F)(F)C(F)F)c5)CC(O)C(F)(F)F)c4)cc3)n2)cc1 (centres unmarked) [Example 300]	31	
CCOC(=O)c1cccc(Nc2cccc(N(Cc3cccc(OC(F)(F)C(F)F)c3)CC(O)C(F)(F)F)c2)c1 (centres unmarked) [Example 303]	33	
COc1cc(Nc2cccc(N(Cc3cccc(OC(F)(F)C(F)F)c3)CC(O)C(F)(F)F)c2)cc(OC)c1OC (centres unmarked) [Example 306]	25	
CCCCN(c1ccc(C(=O)OCC)cc1)c1cccc(N(Cc2cccc(OC(F)(F)C(F)F)c2)CC(O)C(F)(F)F)c1 (centres unmarked) [Example 313]	20	
Cc1ccc(N(CCC#N)c2cccc(N(Cc3cccc(OC(F)(F)C(F)F)c3)CC(O)C(F)(F)F)c2)cc1 (centres unmarked) [Example 314]	14	
CCN(c1ccc(OC)cc1)c1cccc(N(Cc2cccc(OC(F)(F)C(F)F)c2)CC(O)C(F)(F)F)c1 (centres unmarked) [Example 319]	4.7	
OC(CN(Cc1ccc(Cl)s1)c1cccc(OC(F)(F)F)c1)C(F)(F)F (centres unmarked) [Example 321]	5	
N#Cc1cccc(CN(CC(O)C(F)(F)F)c2cccc(OC(F)(F)F)c2)c1 (centres unmarked) [Example 327]	> 100	
OC(CN(Cc1ccc(F)cc1F)c1cccc(OC(F)(F)F)c1)C(F)(F)F (centres unmarked) [Example 329]	> 100	
O=[N+]([O-])c1ccc(CN(CC(O)C(F)(F)F)c2cccc(OC(F)(F)F)c2)cc1 (centres unmarked) [Example 331]	> 100	
OC(CN(Cc1cccc2ccccc12)c1cccc(OC(F)(F)F)c1)C(F)(F)F (centres unmarked) [Example 332]	80	
O=C1c2ccccc2C(=O)c2cc(CN(CC(O)C(F)(F)F)c3cccc(OC(F)(F)F)c3)ccc21 (centres unmarked) [Example 342]	70	
COc1ccc(CN(CC(O)C(F)(F)F)c2cccc(OC(F)(F)F)c2)cc1 (centres unmarked) [Example 347]	15	
OC(CN(Cc1ccncc1)c1cccc(OC(F)(F)F)c1)C(F)(F)F (centres unmarked) [Example 349]	> 100	
COc1cc(OC)cc(C(=O)N(CC(O)C(F)(F)F)c2cccc(OC(F)(F)F)c2)c1 (centres unmarked) [Example 353]	70	
Oc1cccc(CN(CC(O)C(F)(F)F)c2cccc(OC(F)(F)F)c2)c1 (centres unmarked) [Example 357]	40	
Oc1cc(CN(CC(O)C(F)(F)F)c2cccc(OC(F)(F)F)c2)cc(O)c1O (centres unmarked) [Example 359]	> 100	
OC(CN(Cc1cc(Cl)nc(Cl)c1)c1cccc(OC(F)(F)F)c1)C(F)(F)F (centres unmarked) [Example 366]	80	
CCCCOc1ccc(NC(=O)N(CC(O)C(F)(F)F)c2cccc(OC(F)(F)F)c2)cc1 (centres unmarked) [Example 367, N′-(4-butoxyphenyl)-N-(3,3,3-trifluoro-2-hydroxypropyl)-N-[3-(trifluoromethoxy)phenyl]urea]	> 100	
OC(CN(Cc1cccc(OC(F)(F)C(F)F)c1)c1cccc(OCc2ccc(F)cc2C(F)(F)F)c1)C(F)(F)F (centres unmarked) [Example 381]	1.2	
N#Cc1ccc(COc2cccc(N(Cc3cccc(OC(F)(F)C(F)F)c3)CC(O)C(F)(F)F)c2)cc1 (centres unmarked) [Example 384]	1.6	

Continued, in another order:

IC50 [1] [µM]	SMILES	IC50 (IC50, Inhibition of CETP activity in reconstituted buffer assay) [µM]
> 50	OC(CN(Cc1cccc(OC(F)(F)C(F)F)c1)c1cccc(Oc2cc3ccccc3cn2)c1)C(F)(F)F (centres unmarked) [Example 284]	
12	OC(CN(Cc1cccc(OC(F)(F)C(F)F)c1)c1cccc(Oc2ccc3[nH]ccc3c2)c1)C(F)(F)F (centres unmarked) [Example 288]	
11	CCOC(=O)C(C#N)C(=O)c1ccc(Nc2cccc(N(Cc3cccc(OC(F)(F)C(F)F)c3)CC(O)C(F)(F)F)c2)cc1 (centres unmarked) [Example 301]	
15	OC(CN(Cc1cccc(OC(F)(F)C(F)F)c1)c1cccc(Nc2ccc(OC(F)(F)F)cc2)c1)C(F)(F)F (centres unmarked) [Example 308]	
6.6	OC(CN(Cc1cccc(OC(F)(F)C(F)F)c1)c1cccc(Nc2cccc(C(F)(F)F)c2)c1)C(F)(F)F (centres unmarked) [Example 310]	
32	COc1ccc(N(CCCC(F)(F)F)c2cccc(N(Cc3cccc(OC(F)(F)C(F)F)c3)CC(O)C(F)(F)F)c2)cc1 (centres unmarked) [Example 320]	
9	OC(CN(Cc1ccc(OC(F)F)cc1)c1cccc(OC(F)(F)F)c1)C(F)(F)F (centres unmarked) [Example 323]	
20	N#Cc1ccccc1-c1ccc(CN(CC(O)C(F)(F)F)c2cccc(OC(F)(F)F)c2)cc1 (centres unmarked) [Example 324]	
> 100	COc1c(F)c(F)c(CN(CC(O)C(F)(F)F)c2cccc(OC(F)(F)F)c2)c(F)c1F (centres unmarked) [Example 326]	
> 100	OC(CN(Cc1cc(F)cc(F)c1)c1cccc(OC(F)(F)F)c1)C(F)(F)F (centres unmarked) [Example 328]	
> 100	OC(CN(Cc1c(F)cccc1F)c1cccc(OC(F)(F)F)c1)C(F)(F)F (centres unmarked) [Example 330]	
40	O=[N+]([O-])c1cccc(CN(CC(O)C(F)(F)F)c2cccc(OC(F)(F)F)c2)c1 (centres unmarked) [Example 335]	
> 100	OC(CN(CCCCOc1ccccc1)c1cccc(OC(F)(F)F)c1)C(F)(F)F (centres unmarked) [Example 336]	
> 100	OC(CN(CCCc1ccccc1)c1cccc(OC(F)(F)F)c1)C(F)(F)F (centres unmarked) [Example 337]	
> 100	COc1ccc(CCCN(CC(O)C(F)(F)F)c2cccc(OC(F)(F)F)c2)cc1 (centres unmarked) [Example 338]	
> 100	COC(=O)c1ccc(CN(CC(O)C(F)(F)F)c2cccc(OC(F)(F)F)c2)cc1 (centres unmarked) [Example 341]	
> 100	OC(CN(CCc1c[nH]c2ccccc12)c1cccc(OC(F)(F)F)c1)C(F)(F)F (centres unmarked) [Example 344]	
45	OC(CN(Cc1cccnc1)c1cccc(OC(F)(F)F)c1)C(F)(F)F (centres unmarked) [Example 345]	
35	COc1cccc(CN(CC(O)C(F)(F)F)c2cccc(OC(F)(F)F)c2)c1 (centres unmarked) [Example 348]	

IC50 [1] [µM]	SMILES	IC50 (IC50, Inhibition of CETP activity in reconstituted buffer assay) [µM]
35	OC(CN(CC=Cc1ccccc1)c1cccc(OC(F)(F)F)c1)C(F)(F)F (centres unmarked) [Example 352]	
> 100	COc1cc(OC)c(OC)cc1CN(CC(O)C(F)(F)F)c1cccc(OC(F)(F)F)c1 (centres unmarked) [Example 354]	
75	COc1ccc(OC)c(CN(CC(O)C(F)(F)F)c2cccc(OC(F)(F)F)c2)c1 (centres unmarked) [Example 355]	
> 100	O=C(O)c1cccc(CN(CC(O)C(F)(F)F)c2cccc(OC(F)(F)F)c2)c1 (centres unmarked) [Example 356]	
> 100	Oc1ccc(O)c(CN(CC(O)C(F)(F)F)c2cccc(OC(F)(F)F)c2)c1 (centres unmarked) [Example 358]	
> 100	Oc1cc(O)cc(CN(CC(O)C(F)(F)F)c2cccc(OC(F)(F)F)c2)c1 (centres unmarked) [Example 360]	
45	OC(CN(Cc1ccc2ccccc2n1)c1cccc(OC(F)(F)F)c1)C(F)(F)F (centres unmarked) [Example 362]	
40	OC(CN(Cc1ccccn1)c1cccc(OC(F)(F)F)c1)C(F)(F)F (centres unmarked) [Example 363]	
> 100	OC(CN(Cc1nc2ccccc2[nH]1)c1cccc(OC(F)(F)F)c1)C(F)(F)F (centres unmarked) [Example 364]	
> 100	OC(CN(Cc1nccn1Cc1ccccc1)c1cccc(OC(F)(F)F)c1)C(F)(F)F (centres unmarked) [Example 365]	
> 100	CSc1ccccc1NC(=O)N(CC(O)C(F)(F)F)c1cccc(OC(F)(F)F)c1 (centres unmarked) [Example 368]	
> 100	O=C(Nc1ccc(-c2ccccc2)cc1)N(CC(O)C(F)(F)F)c1cccc(OC(F)(F)F)c1 (centres unmarked) [Example 369]	
> 100	Cc1ccc(S(=O)(=O)NC(=O)N(CC(O)C(F)(F)F)c2cccc(OC(F)(F)F)c2)cc1 (centres unmarked) [Example 370]	
3.9	Oc1cccc(N(Cc2cccc(OC(F)(F)C(F)F)c2)CC(O)C(F)(F)F)c1 (centres unmarked) [Example 371, 3-[[[3-(1,1,2,2-tetrafluoroethoxy)phenyl]methyl](3,3,3-trifluoro-2-hydroxypropyl)amino]phenol]	
4.5	O=[N+]([O-])c1ccc(COc2cccc(N(Cc3cccc(OC(F)(F)C(F)F)c3)CC(O)C(F)(F)F)c2)cc1 (centres unmarked) [Example 375]	
3.3	OC(CN(Cc1cccc(OC(F)(F)C(F)F)c1)c1cccc(OCc2c(F)c(F)c(F)c(F)c2F)c1)C(F)(F)F (centres unmarked) [Example 376]	
11	OC(CN(Cc1cccc(OC(F)(F)C(F)F)c1)c1cccc(OCc2c(F)c(F)c(C(F)(F)F)c(F)c2F)c1)C(F)(F)F (centres unmarked) [Example 380]	
2.3	O=[N+]([O-])c1cccc(COc2cccc(N(Cc3cccc(OC(F)(F)C(F)F)c3)CC(O)C(F)(F)F)c2)c1 (centres unmarked) [Example 382]	
2.3	N#Cc1cccc(COc2cccc(N(Cc3cccc(OC(F)(F)C(F)F)c3)CC(O)C(F)(F)F)c2)c1 (centres unmarked) [Example 383]	
